Results taken from US7732468B2, “3-aryl-6-aryl-[ 1,2,4]triazolo[3,4-b][1,3,4]thiadiazoles and related compounds as activators of caspases and inducers of apoptosis and the use thereof” (Cytovia, Inc., priority 2006, dated 2010).

How the values were obtained:
Type in all cases: cell-based
[1] = test system: human lymphoma cell line Raji; experiment: Caspase cascade activation in Raji cells; details: RAJ1 cells, 48 h incubation, read-out: caspase potency EC50 RAJ1
Procedure: (§1) Human breast cancer cell lines T-47D, human hepatocellular carcinoma cell line SNU398, human colon carcinoma cell line HCT116, human cancer cell line H11299, human Burkitt's lymphoma cell line Namalwa, human lymphoma cell line Raji, and human B cell lymphoblastoid cell line Ramos were grown according to media component mixtures designated by American Type Culture Collection+10% FCS (Invitrogen Corporation), in a 5% CO2-95% humidity incubator at 37° C. T-47D and H1299 cells were maintained at a cell density between 50 and 80% confluency at a cell density of 0.1 to 0.6×10^6 cells/mL. Cells were harvested at 600×g and resuspended at 0.65×10^6 cells/mL into appropriate media+10% FCS. An aliquot of 22.5 μL of cells was added to a well of a 384-well microtiter plate containing 2.5 μL of a 10% DMSO in RPMI-1640 media solution containing 0.16 to 100 μM of 6-(3,4-dimethoxyphenyl)-3-(2-methoxyphenyl)-[1,2,4]triazolo[3,4-b][1,3,4]thiadiazole or other test compound (0.016 to 10 μM final). An aliquot of 22.5 μL of cells was added to a well of a 384-well microtiter plate containing 2.5 μL of a 10% DMSO in RPMI-1640 media solution without test compound as the control sample. The samples were mixed by agitation and then incubated at 37° C. for 48 h in a 5% CO2-95% humidity incubator. After incubation, the samples were removed from the incubator and 25 μL of a solution containing 14 μM of N-(Ac-DEVD)-N′-ethoxycarbonyl-R110 (SEQ ID No.:1) fluorogenic substrate (Cytovia, Inc.; WO99/18856), 20% sucrose (Sigma), 20 mM DTT (Sigma), 200 mM NaCl (Sigma), 40 mM Na PIPES buffer pH 7.2 (Sigma), and 500 μg/mL lysolecithin (Calbiochem) was added. The samples were mixed by agitation and incubated at room temperature. Using a fluorescent plate reader (Model SPECTRAfluor Plus, Tecan), an initial reading (T=0) was made approximately 1-2 min after addition of the substrate solution, employing excitation at 485 nm and emission at 530 nm, to determine the background fluorescence of the control sample. After the 3 h incubation, the samples were read for fluorescence as above (T=3 h).
(§2) The Relative Fluorescence Unit values (RFU) were used to calculate the sample readings as follows: RFU(T=3h)−Control RFU(T=0)=Net RFU(T=3h)
(§3) The activity of caspase cascade activation was determined by the ratio of the net RFU value for 6-(3,4-dimethoxyphenyl)-3-(2-methoxyphenyl)-[1,2,4]triazolo[3,4-b][1,3,4]thiadiazole (Example I) or other test compound to that of control samples. The EC50 (nM) was determined by a sigmoidal dose-response calculation (Prism 3.0, GraphPad Software Inc.).

[2] = test system: human B cell lymphoblastoid cell line Ramos; experiment: Caspase cascade activation in Ramos cells; details: 48 h incubation, read-out: caspase potency EC50 RAMOS
Procedure: as §1, §2, §3

[3] = test system: human Burkitt's lymphoma cell line Namalwa; experiment: Caspase cascade activation in Namalwa cells; details: Burkitts lymphoma cell, 48 h incubation, read-out: caspase potency EC50 Namalwa
Procedure: as §1, §2, §3

[4] = test system: Human breast cancer cell lines T-47D; experiment: Caspase cascade activation (Ac-DEVD-R110 fluorogenic substrate) in T-47D cells; details: T47D cells, 48 h incubation, read-out: caspase potency EC50 T47D
Procedure: as §1, §2, §3

[5] = test system: human colon carcinoma cell line HCT116; experiment: Caspase cascade activation in HCT116 cells; details: HCT-116, 48 h incubation, read-out: caspase potency EC50 HCT116
Procedure: as §1, §2, §3

[6] = test system: human hepatocellular carcinoma cell line SNU398; experiment: Caspase cascade activation in SNU398 cells; details: SNU-398, 48 h incubation, read-out: caspase potency EC50 SNU398
Procedure: as §1, §2, §3

Row | EC50 [1] | EC50 [2] | EC50 [3] | EC50 [4] | EC50 [5] | EC50 [6] | Structure (SMILES)
1 | 1.06 µM | 0.524 µM | 0.598 µM | – | – | – | CCN(CC)c1ccc(-c2nn3c(-c4ccncc4)nnc3s2)cc1 [J, 6-(4-Diethylaminophenyl)-3-(pyridin-4-yl)-[1,2,4]triazolo[3,4-b][1,3,4]thiadiazole]
2 | 5.4 µM | 5.3 µM | 5.63 µM | > 10 µM | > 10 µM | > 10 µM | CCc1nn(C)c(-c2nnc3sc(-c4ccc(OC)cc4)nn23)c1Cl [B, 3-(4-Chloro-3-ethyl-1-methyl-1H-pyrazol-5-yl)-6-(4-methoxyphenyl)-[1,2,4]triazolo[3,4-b][1,3,4]thiadiazole]
3 | – | – | 2.38 µM | 1.27 µM | 2.64 µM | 2.31 µM | COc1ccccc1-c1nnc2sc(-c3ccc(N4CCOCC4)cc3)nn12 [Entry 9, 3-(2-Methoxyphenyl)-6-(4-morpholinophenyl)-[1,2,4]triazolo[3,4-b][1,3,4]thiadiazole]
4 | > 10 µM | > 10 µM | > 10 µM | 3.61 µM | 2.36 µM | 2.01 µM | COc1cc(-c2nnc3sc(-c4ccncc4)nn23)cc(OC)c1OC [X, 6-(Pyridin-4-yl)-3-(3,4,5-trimethoxyphenyl)-[1,2,4]triazolo[3,4-b][1,3,4]thiadiazole]
5 | 1.56 µM | 1.02 µM | 0.963 µM | – | – | – | COc1ccc(-c2nn3c(-c4ccccc4Cl)nnc3s2)cc1 [Z, 3-(2-Chlorophenyl)-6-(4-methoxyphenyl)-[1,2,4]triazolo[3,4-b][1,3,4]thiadiazole]
6 | > 10 µM | 5.18 µM | 5.3 µM | – | – | – | COc1ccc(-c2nnc3sc(-c4ccc(N(C)C)cc4)nn23)cc1OC [Entry C1, 3-(3,4-Dimethoxyphenyl)-6-(4-dimethylaminophenyl)-[1,2,4]triazolo[3,4-b][1,3,4]thiadiazole]
7 | – | – | > 10 µM | > 10 µM | > 10 µM | > 10 µM | COc1cc(-c2nnc3sc(-c4ccc(C)c([N+](=O)[O-])c4)nn23)cc(OC)c1OC [Entry 1, 6-(4-Methyl-3-nitrophenyl)-3-(3,4,5-trimethoxyphenyl)-[1,2,4]triazolo[3,4-b][1,3,4]thiadiazole]
8 | – | – | 0.155 µM | 0.967 µM | 0.663 µM | 0.146 µM | COc1ccccc1-c1nnc2sc(-c3ccc4cc[nH]c4c3)nn12 [Entry 13, 6-(1H-indol-6-yl)-3-(2-methoxyphenyl)-[1,2,4]triazolo[3,4-b][1,3,4]thiadiazole]
9 | > 10 µM | > 10 µM | > 10 µM | 5.44 µM | > 10 µM | > 10 µM | COc1cc(-c2nnc3sc(-c4cccs4)nn23)cc(OC)c1OC [Y, 6-(Thiophen-2-yl)-3-(3,4,5-trimethoxyphenyl)-[1,2,4]triazolo[3,4-b][1,3,4]thiadiazole]
10 | > 10 µM | 5.33 µM | 5.53 µM | – | – | – | CN(C)c1ccc(-c2nnc3sc(-c4cccc(N(C)C)c4)nn23)cc1 [Entry J1, 3-(4-Dimethylaminophenyl)-6-(3-dimethylaminophenyl)-[1,2,4]triazolo[3,4-b][1,3,4]thiadiazole]
11 | 2.93 µM | 2.24 µM | 2.35 µM | – | – | – | CCN(CC)c1ccc(-c2nn3c(-c4cccc(C)c4)nnc3s2)cc1 [G, 6-(4-Diethylaminophenyl)-3-m-tolyl-[1,2,4]triazolo[3,4-b][1,3,4]thiadiazole]
12 | > 10 µM | > 10 µM | > 10 µM | 5.04 µM | > 10 µM | > 10 µM | COc1cc(-c2nnc3sc(-c4ccccc4)nn23)cc(OC)c1OC [W, 6-Phenyl-3-(3,4,5-trimethoxyphenyl)-[1,2,4]triazolo[3,4-b][1,3,4]thiadiazole]
13 | 5.07 µM | 1.1 µM | 2.48 µM | – | – | – | CCN(CC)c1ccc(-c2nn3c(-c4cccnc4)nnc3s2)cc1 [D, 6-(4-Diethylaminophenyl)-3-(pyridin-3-yl)-[1,2,4]triazolo[3,4-b][1,3,4]thiadiazole]
14 | – | – | 0.626 µM | 1.62 µM | 1.31 µM | 0.645 µM | COc1cc(-c2nnc3sc(-c4ccc(C)c(N)c4)nn23)cc(OC)c1OC [Entry 2, 6-(3-Amino-4-methylphenyl)-3-(3,4,5-trimethoxyphenyl)-[1,2,4]triazolo[3,4-b][1,3,4]thiadiazole]
15 | – | – | > 10 µM | > 10 µM | > 10 µM | > 10 µM | COc1ccccc1-c1nnc2sc(-c3ccc(OC)c([N+](=O)[O-])c3)nn12 [Entry 6, 6-(4-Methoxy-3-nitrophenyl)-3-(2-methoxyphenyl)-[1,2,4]triazolo[3,4-b][1,3,4]thiadiazole]
16 | – | – | > 10 µM | > 10 µM | > 10 µM | > 10 µM | COc1cc(-c2nnc3sc(-c4ccc5nc[nH]c5c4)nn23)cc(OC)c1OC [Entry 3, 6-(1H-Benzo[d]imidazol-6-yl)-3-(3,4,5-trimethoxyphenyl)-[1,2,4]triazolo[3,4-b][1,3,4]thiadiazole]
17 | 2.69 µM | 1.74 µM | 1.31 µM | 2.43 µM | 2.76 µM | – | COc1ccc(-c2nn3c(-c4n[nH]c5c4CCC5)nnc3s2)cc1OC [Entry L1, 6-(3,4-Dimethoxyphenyl)-3-(1,4,5,6-tetrahydrocyclopenta[c]pyrazol-3-yl)-[1,2,4]triazolo[3,4-b][1,3,4]thiadiazole]
18 | – | – | > 10 µM | > 10 µM | > 10 µM | > 10 µM | COc1ccccc1-c1nnc2sc(-c3ccc([N+](=O)[O-])c(OC)c3)nn12 [Entry 10, 6-(3-Methoxy-4-nitrophenyl)-3-(2-methoxyphenyl)-[1,2,4]triazolo[3,4-b][1,3,4]thiadiazole]
19 | – | – | > 10 µM | > 10 µM | > 10 µM | > 10 µM | COc1ccccc1-c1nnc2sc(-c3ccc(C)c([N+](=O)[O-])c3)nn12 [Entry 4, 3-(2-Methoxyphenyl)-6-(4-methyl-3-nitrophenyl)-[1,2,4]triazolo[3,4-b][1,3,4]thiadiazole]
20 | – | – | > 10 µM | > 10 µM | > 10 µM | > 10 µM | COc1ccccc1-c1nnc2sc(-c3cccnc3)nn12 [Entry 11, 3-(2-Methoxyphenyl)-6-(pyridin-3-yl)-[1,2,4]triazolo[3,4-b][1,3,4]thiadiazole]
21 | 4.94 µM | 3.92 µM | 2.66 µM | – | – | – | CN(C)c1ccc(-c2nn3c(-c4ccncc4)nnc3s2)cc1 [Entry H1, 6-(4-Dimethylaminophenyl)-3-(pyridine-4-yl)-[1,2,4]triazolo[3,4-b][1,3,4]thiadiazole]
22 | – | – | > 10 µM | > 10 µM | > 10 µM | > 10 µM | COc1cc(-c2nnc3sc(-c4ccc(N5CCOCC5)cc4)nn23)cc(OC)c1OC [Entry 8, 6-(4-Morpholinophenyl)-3-(3,4,5-trimethoxyphenyl)-[1,2,4]triazolo[3,4-b][1,3,4]thiadiazole]
23 | – | – | 0.649 µM | 1.18 µM | 1.17 µM | 0.571 µM | COc1ccccc1-c1nnc2sc(-c3ccc4[nH]ncc4c3)nn12 [Entry 12, 6-(1H-indazol-5-yl)-3-(2-methoxyphenyl)-[1,2,4]triazolo[3,4-b][1,3,4]thiadiazole]
